Measured values from patent EP0594877A1, “Imidazo(1,2-c)quinazoline derivates as antihyper tensives and anti dysurics” (NATIONAL SCIENCE COUNCIL, priority 1992, dated 1994).

Tests used:
[1] = Antihypertensive activity: blood pressure and heart rate in anesthetized cats after i.v. administration; assay type: in vivo; details: for MBP (mm Hg) 1 hour / MBP (mm Hg) 2 hour: anesthetized cats
Description: (§1) Adult cats of either sex, 2-3 Kg, anesthetized with pentobarbital sodium (30 mg/Kg i.p.) were used. The trachea was intubated to provide artificial respiration with air by means of a Harvard respirator (respiration rate= 16-20/min and colume= 40-50 ml/stroke). Both femoral artery and vein were cannulated with PE 150 to monitor blood pressure and for drug administration respectively. Body temperature was maintained at 37.5°C with a heating pad and monitored with a rectal thermometer. Blood pressure was measured with a Statham P23D pressure transducer via a polyethylene cannula conducted to a right femoral artery. Heart rate was measured through a Grass Model 7B tachograph preamplifier triggered by the pulses of arterial blood pressure. All data were recorded on a Grass Model 7B polygraph.
The solvent (50% DM50) has no significant action on B.P. or H.R. However, Example 4 compound (250 µg/Kg) decreases B.P. immediately and reaches maximally at 5-10 minutes, and the duration of action is about 4 hours.

α₁-Adrenergic receptor = α₁-Adrenergic receptor binding assay with [³H] prazocin, rat brain cortex membranes; details: 0.2 nM [³H] prazocin, pH 7.4
Description: (§2) After the removal of nuclei by centrifugation at 1000 x g for 10 min, P₂ membranes were pelleted by centrifuging the supernatant at 22,000 x g for 20 min. After two periods of centrifugation at 22,000 x g and resuspension in fresh buffer, the membrane suspension (about 2 mg/ml protein) was ready for use.
(§3) α₁-Adrenergic receptor binding assays (in triplicate) were carried out with 0.2 nM [³H] prazocin in a final volume of 1.0 ml of Tris buffer at pH 7.4 for 30 min at room temperature, using 10 µM phentolamine to determine non-specific binding. The concentrations of synthetic compounds for competition binding were in the range of 0.1 - 200 nM. α₂-adrenergic receptor binding assays (in triplicate) were carried out with 1 nM [³H] clonidine in the presence of 10 mM MgCl₂ and in a final volume of 1.0 ml of Tris buffer at pH 7.4 for 30 min at room temperature, using 10 µM clonidine to determine non-specific binding. The concentrations of synthetic compounds for competition binding were in the range of 0.1-100 µM. After binding had reached equilibrium, incubations were terminated by collecting the membranes on whatman GF/B filters; the filters were washed twice with 5 ml of 50 mM Tris buffer (pH 7.4) at 4°C. The amount of membrane protein used in each assay was in the range of 300-400 µg, as determined by the method of Lowry et al..

α₂-adrenergic receptor = α₂-adrenergic receptor binding assay with [³H] clonidine, rat brain cortex membranes; details: for Ki: 1 nM [³H] clonidine, 10 mM MgCl₂, rat brain cortex membranes, pH 7.4; for α₂/α₁ ratio: ratio of α₂ Ki to α₁ Ki
Description: as §2, §3

[2] = Antagonistic effect on blood pressure responses induced by phenylephrine or serotonin in cats; assay type: in vivo; details: cats pretreated with dose of ED₅₀ (0.25mg/kg)
Description: • Fig. 1 is a does-response plot of 2-(4-phenyl-1-piperazinyl)methyl-2,3-dihydroimidazo[1,2-c]-quinazoline-5(6H)-one (Example 4) on blood pressure in 5 cats; • Fig. 2 is a time-course of various doeses of Example 4 compound on blood pressure in cats; and • Fig. 3 is a plot showing antagonistic effect of Example 4 compound (0.25mg/kg) on blood pressures induced by phenylephrine (0.015mg/kg) or serotonin (0.020mg/kg).
as §1

[3] = cats, i.v., 10 µg to 1 mg/kg, dose-dependent

Ki (α₁-Adrenergic receptor) [nM] | Ki (α₂-adrenergic receptor) [nM] | α₂/α₁ ratio (α₂-adrenergic receptor) | Compound | MBP (mm Hg) 1 hour ([1]; dose 4.0 mg/Kg) [mm Hg] | other results
850 | > 10000 | >11 | O=C1Nc2ccccc2C2=NC(CN3CCN(Cc4ccccc4)CC3)CN12 (centres unmarked) [Example 8, 2-[4-Benzyl-1-piperazinyl]methyl-2,3-dihydroimidazo[1,2-c]quinazolin-5(6H)-one] | -43.7±5.2 | –
– | – | – | O=C(c1ccc(F)cc1)C1CCN(CC2CN3C(=O)Nc4ccccc4C3=N2)CC1 (centres unmarked) [Example 15, 2-[1-(4-p-fluorobenzoyl)piperidinyl]methyl-2,3-dihydroimidazo[1,2-c]quinazolin-5(6H)-one] | -30 ±7.3 | MBP (mm Hg) 2 hour ([1]; dose 4.0 mg/Kg): -13.8±8.9 mm Hg
2.01 ± 0.09 | – | – | O=C1Nc2ccccc2C2=NC(CN3CCN(c4ccccc4)CC3)CN12 (centres unmarked) [Example 4, 2-(4-phenyl-1-piperazinyl)methyl-2,3-dihydroimidazo[1,2-c]quinazolin-5(6H)-one] | – | ED50 ([1]; Felis catus, iv, cats, i.v., read-out: ED₅₀ of lowing blood pressure): 0.25 mg/kg; time at which decrease of B.P. reaches maximally ([1]; anesthetized cat, 250 µg/Kg i.v.): 5 to 10 min; MBP (mm Hg) 1 hour ([1]; dose 0.125 mg/Kg): -12.5±4.6 mm Hg; MBP (mm Hg) 1 hour ([1]; dose 0.25 mg/Kg): -23.1±2.7 mm Hg; MBP (mm Hg) 2 hour ([1]; dose 0.25 mg/Kg): -8.75±5.7 mm Hg; MBP (mm Hg) 1 hour ([1]; dose 0.5 mg/Kg): -49.3±1.5 mm Hg; MBP (mm Hg) 2 hour ([1]; dose 0.5 mg/Kg): -32.5±2.5 mm Hg; MBP (mm Hg) 1 hour ([1]; dose 1.0 mg/Kg): -57.5±2.5 mm Hg; MBP (mm Hg) 2 hour ([1]; dose 1.0 mg/Kg): -44.5±0.5 mm Hg; changes in heart rate (HR) [1, 3]: biphasically (initially increases, then decreases); effect on SBP and DBP [1, 3]: decreases both SBP and DBP; blood pressure response to PE ([2]; phenylephrine 0.015mg/kg, p<0.02): significantly antagonizes; blood pressure response to 5-HT ([2]; serotonin 0.020mg/kg, p>0.05): no effect
35.8 ± 8.6 | 5011 ± 11 | 140 | O=C1Nc2ccccc2C2=NC(CN3CCC(Cc4ccccc4)CC3)CN12 (centres unmarked) [Example 9, 2-[4-Benzyl-1-piperidinyl]methyl-2,3-dihydroimidazo[1,2-c]quinazolin-5(6H)-one] | -30.6±4.7 | –
95.9 ± 5.2 | – | – | O=C1Nc2ccccc2C2=NC(CN3CCN(c4ccccn4)CC3)CN12 (centres unmarked) [Example 10, 2-[4-(2-Pyridinyl)-1-piperazinyl]methyl-2,3-dihydroimidazo[1,2-c]quinazolin-5(6H)-one] | – | –
> 100 | – | – | COc1ccc(N2CCN(CC3CN4C(=O)Nc5ccccc5C4=N3)CC2)cc1 (centres unmarked) [Example 16, 2-[1-(4-methoxyphenyl)piperazinyl]methyl-2,3-dihydroimidazo[1,2-c]quinazolin-5(6H)-one] | – | –
0.68 ± 0.26 | – | – | CN1C(=O)N2CC(CN3CCN(c4ccccc4Cl)CC3)N=C2c2ccccc21 (centres unmarked) [Example 28, 2-[4-(2-chlorophenyl)-1-piperazinyl]methyl-6-methyl-2,3-dihydroimidazo[1,2-c]quinazolin-5-one] | – | –
> 100 | – | – | O=C1Nc2ccccc2C2=NC(CN3CCN(Cc4ccc5c(c4)OCO5)CC3)CN12 (centres unmarked) [Example 6, 2-[4-piperonyl-1-piperazinyl]methyl-2,3-dihydroimidazo[1,2-c]quinazolin-5(6H)-one] | – | –
– | – | – | 2-(4-phenyl-1-piperazinyl)methyl-2,3-dihydroimidazo[1,2-c]quinazolin-5(6H)-thione [Example 20] | -33.9±9.7 | MBP (mm Hg) 2 hour ([1]; dose 4.0 mg/Kg): -22.5±7.6 mm Hg
586 ± 9 | – | – | O=C1Nc2ccccc2C2=NC(CNC3CCN(Cc4ccccc4)CC3)CN12 (centres unmarked) [Example 12, 2-[1-benzylpiperidin-4-yl]aminomethyl-2,3-dihydroimidazo[1,2-c]quinazolin-5(6H)-one] | – | –
14.4 | 391 | 27 | 2-[4-(4-fluorobenzyl)-1-piperazinyl]methyl-2,3-dihydroimidazo[1,2-c]quinazolin-5(6H)-one [Example 11] | – | –
1.3 ± 0.5 | 3450 ± 329 | 2654 | COc1ccccc1N1CCN(CC2CN3C(=O)Nc4ccccc4C3=N2)CC1 (centres unmarked) [Example 7, 2-[4-(2-methoxy)phenyl-1-piperazinyl]methyl-2,3-dihydroimidazo[1,2-c]quinazolin-5(6H)-one] | – | MBP (mm Hg) 1 hour ([1]; dose 0.25 mg/Kg): -17.5 mm Hg; MBP (mm Hg) 1 hour ([1]; dose 0.5 mg/Kg): -20 mm Hg; MBP (mm Hg) 2 hour ([1]; dose 0.5 mg/Kg): -18.8 mm Hg; MBP (mm Hg) 1 hour ([1]; dose 1.0 mg/Kg): -30 mm Hg; MBP (mm Hg) 2 hour ([1]; dose 1.0 mg/Kg): -15 mm Hg
1.1 ± 0.05 | 3170 ± 396 | 3015 | O=C1Nc2ccccc2C2=NC(CN3CCN(c4ccccc4Cl)CC3)CN12 (centres unmarked) [Example 26, 2-[4-(2-chlorophenyl)-1-piperazinyl]methyl-2,3-dihydroimidazo[1,2-c]quinazolin-5(6H)-one] | – | MBP (mm Hg) 1 hour ([1]; dose 0.5 mg/Kg): -25.5±3.4 mm Hg; MBP (mm Hg) 2 hour ([1]; dose 0.5 mg/Kg): -5.7±1.5 mm Hg; MBP (mm Hg) 1 hour ([1]; dose 1.0 mg/Kg): -40.7±9.7 mm Hg; MBP (mm Hg) 2 hour ([1]; dose 1.0 mg/Kg): -12.6±3.4 mm Hg
– | – | – | COc1cccc(N2CCN(CC3CN4C(=O)Nc5ccccc5C4=N3)CC2)c1 (centres unmarked) [Example 17, 2-[1-(3-methoxyphenyl)piperazinyl]methyl-2,3-dihydroimidazo[1,2-c]quinazolin-5(6H)-one] | -20.3±10.2 | MBP (mm Hg) 2 hour ([1]; dose 4.0 mg/Kg): -8.5±2.6 mm Hg
30 ± 10 | 1690 | 54 | COc1cc2c(cc1OC)C1=NC(CN3CCN(c4ccccc4)CC3)CN1C(=O)N2 (centres unmarked) [Example 25, 2-(4-phenyl-1-piperazinyl)methyl-8,9-dimethoxy-2,3-dihydro-imidazo[1,2-c]quinazolin-5(6H)-one] | -38.2±5.7 | MBP (mm Hg) 2 hour ([1]; dose 4.0 mg/Kg): -12.6±5.0 mm Hg
